Assay results taken from PubChem BioAssay AID2060624 (Molecular Pharmacology Branch, DTP, NCI, 2025).

Tested on: 217524-143-R1-J4-PDC spheroids with HUVEC/MSC, viability
Test: Anticancer human tumor 217524-143-R1-J4-PDC patient-derived pancreatic carcinoma cell line growth inhibition [CLK]
Conditions: for IC50: curve of first compound; for viability, T/C: stronger effect = lower value
In short: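 Patient-derived tumor cells grown as complex spheroids with HUVEC endothelial cells and mesenchymal stem cells, treated with drug combinations. Concentrations descend in half-log steps from near clinical Cmax, or from 10 microM if Cmax unknown.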

[1] = second compound 0.0316 µM, first compound 0.0316 µM
[2] = second compound 0.0316 µM, first compound 0.1 µM
[3] = second compound 0.0316 µM, first compound 0.316 µM
[4] = second compound 0.0316 µM, first compound 1 µM
[5] = second compound 0.0316 µM, first compound 3.16 µM
[6] = second compound 0.0316 µM, first compound 10 µM
[7] = second compound 0.1 µM, first compound 0.0316 µM
[8] = second compound 0.1 µM, first compound 0.1 µM
[9] = second compound 0.1 µM, first compound 0.316 µM
[10] = second compound 0.1 µM, first compound 1 µM
[11] = second compound 0.1 µM, first compound 3.16 µM
[12] = second compound 0.1 µM, first compound 10 µM
[13] = second compound 0.316 µM, first compound 0.0316 µM
[14] = second compound 0.316 µM, first compound 0.1 µM
[15] = second compound 0.316 µM, first compound 0.316 µM
[16] = second compound 0.316 µM, first compound 1 µM
[17] = second compound 0.316 µM, first compound 3.16 µM
[18] = second compound 0.316 µM, first compound 10 µM
[19] = second compound 1 µM, first compound 0.0316 µM
[20] = second compound 1 µM, first compound 0.1 µM
[21] = second compound 1 µM, first compound 0.316 µM
[22] = second compound 1 µM, first compound 1 µM
[23] = second compound 1 µM, first compound 3.16 µM
[24] = second compound 1 µM, first compound 10 µM
[25] = second compound 3.16 µM, first compound 0.0316 µM
[26] = second compound 3.16 µM, first compound 0.1 µM
[27] = second compound 3.16 µM, first compound 0.316 µM
[28] = second compound 3.16 µM, first compound 1 µM
[29] = second compound 3.16 µM, first compound 3.16 µM
[30] = second compound 3.16 µM, first compound 10 µM
[31] = second compound 10 µM, first compound 0.0316 µM
[32] = second compound 10 µM, first compound 0.1 µM
[33] = second compound 10 µM, first compound 0.316 µM
[34] = second compound 10 µM, first compound 1 µM
[35] = second compound 10 µM, first compound 3.16 µM
[36] = second compound 10 µM, first compound 10 µM
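Further: spheroids exposed to agents for seven days before reading.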
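Wherever viability, T/C is given: 100% = DMSO vehicle control viability.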

In the case of `C#Cc1c(F)ccc2cc(O)cc(-c3ncc4c(N5CC6CCC(C5)N6)nc(OCC56CCCN5CC(F)C6)nc4c3F)c12` (centres undefined) + CNC(=O)c1ccc(Nc2nc(OC3CCCC3)c3c(-c4ccc5nc(C)oc5c4)c[nH]c3n2)c(OC)c1, the IC50 (second compound 0.0316 µM) is reported as over 10000 nM, the IC50 (second compound 0.1 µM) is reported as under 31.6 nM and the IC50 (second compound 0.316 µM) is reported as under 31.6 nM. It also gave an IC50 (second compound 1 µM) of under 31.6 nM, an IC50 (second compound 3.16 µM) of under 31.6 nM and an IC50 (second compound 10 µM) of under 31.6 nM. It also gave a viability, T/C [1] of 84.3%, a viability, T/C [2] of 98.2% and a viability, T/C [3] of 90.8%. For the same molecule, the viability, T/C [4] was 101%, the viability, T/C [5] was 89.4% and the viability, T/C [6] was 69%. The viability, T/C [7] was 47.5%, the viability, T/C [8] was 39.2% and the viability, T/C [9] was 53.6%. For the same molecule, the viability, T/C [10] was 42.4%, the viability, T/C [11] was 44.5% and the viability, T/C [12] was 30.8%. The viability, T/C [13] was 38.5%, the viability, T/C [14] was 50.3% and the viability, T/C [15] was 38.2%. For the same molecule, the viability, T/C [16] was 40.9%, the viability, T/C [17] was 38.7% and the viability, T/C [18] was 24.3%. It also gave a viability, T/C [19] of 33.1%, a viability, T/C [20] of 30% and a viability, T/C [21] of 26.1%. For the same molecule, the viability, T/C [22] was 35.5%, the viability, T/C [23] was 24.5% and the viability, T/C [24] was 18.9%. The viability, T/C [25] was 29.1%, the viability, T/C [26] was 29.5% and the viability, T/C [27] was 32.6%. The viability, T/C [28] was 26.7%, the viability, T/C [29] was 26.2% and the viability, T/C [30] was 19.4%. For the same molecule, the viability, T/C [31] was 26.3%, the viability, T/C [32] was 24.2% and the viability, T/C [33] was 27.8%. The viability, T/C [34] was 23.4%, the viability, T/C [35] was 24.9% and the viability, T/C [36] was 19.7%.

In the case of `C=C(F)C(=O)N1CCN(c2nc(OCC3CCCN3C)nc3c2CCN(c2cccc4cccc(Cl)c24)C3)CC1CC#N` (centres undefined) + CNC(=O)c1ccc(Nc2nc(OC3CCCC3)c3c(-c4ccc5nc(C)oc5c4)c[nH]c3n2)c(OC)c1, the IC50 (second compound 0.0316 µM) is reported as 5260 nM, the IC50 (second compound 0.1 µM) is reported as under 31.6 nM and the IC50 (second compound 0.316 µM) is reported as under 31.6 nM. The IC50 (second compound 1 µM) was under 31.6 nM, the IC50 (second compound 3.16 µM) was under 31.6 nM and the IC50 (second compound 10 µM) was under 31.6 nM. It also gave a viability, T/C [1] of 80.1%, a viability, T/C [2] of 77.7% and a viability, T/C [3] of 97.1%. For the same molecule, the viability, T/C [4] was 85.7%, the viability, T/C [5] was 104% and the viability, T/C [6] was 0.48%. It also gave a viability, T/C [7] of 46.5%, a viability, T/C [8] of 43% and a viability, T/C [9] of 34.7%. It also gave a viability, T/C [10] of 45.3%, a viability, T/C [11] of 37.9% and a viability, T/C [12] of 0.82%. It also gave a viability, T/C [13] of 39.3%, a viability, T/C [14] of 42.9% and a viability, T/C [15] of 41.9%. The viability, T/C [16] was 28.2%, the viability, T/C [17] was 28.2% and the viability, T/C [18] was 1.22%. It also gave a viability, T/C [19] of 32.5%, a viability, T/C [20] of 33.8% and a viability, T/C [21] of 30.9%. It also gave a viability, T/C [22] of 23.4%, a viability, T/C [23] of 21.8% and a viability, T/C [24] of 0.35%. The viability, T/C [25] was 27.8%, the viability, T/C [26] was 40.8% and the viability, T/C [27] was 25.6%. It also gave a viability, T/C [28] of 23.8%, a viability, T/C [29] of 19.6% and a viability, T/C [30] of 0.34%. It also gave a viability, T/C [31] of 26.5%, a viability, T/C [32] of 22.6% and a viability, T/C [33] of 27.6%. For the same molecule, the viability, T/C [34] was 25.4%, the viability, T/C [35] was 18.5% and the viability, T/C [36] was 0.42%.
